# Assay results: paper PMC7031696 (Cell chemical biology, 2019)
# Tested on: 3D7-MR4 trophozoite parasite-infected RBCs
# Test: Metabolomic profiling (hydrophilic metabolite changes, UHPLC-MS)
# Type: cell-based, Plasmodium falciparum
substance,measurement,setting,value
Ferroquine [reference compound],Log2(fold changes) adenosine,"metabolite adenosine, log2 fold change",0.0000
same,Log2(fold changes) alanine/sarcosine,"metabolite alanine/sarcosine, log2 fold change",0.0137
same,Log2(fold changes) anthranilate,"metabolite anthranilate, log2 fold change",0.0000
same,Log2(fold changes) arginine,"metabolite arginine, log2 fold change",0.0962
same,Log2(fold changes) asparagine,"metabolite asparagine, log2 fold change",0.2455
same,Log2(fold changes) aspartate,"metabolite aspartate, log2 fold change",0.0829
same,Log2(fold changes) biotin,"metabolite biotin, log2 fold change",0.0000
same,Log2(fold changes) cCMP,"metabolite cCMP, log2 fold change",0.0000
same,Log2(fold changes) cGMP,"metabolite cGMP, log2 fold change",0.0000
same,Log2(fold changes) carnitine,"metabolite carnitine, log2 fold change",0.0000
same,Log2(fold changes) citrate/isocitrate,"metabolite citrate/isocitrate, log2 fold change",0.0063
same,Log2(fold change) of coenzyme A,metabolite coenzyme A,0.9119
same,Log2(fold change) of cyclic-AMP,metabolite cyclic-AMP,0.1031
same,Log2(fold change) of cytidine,metabolite cytidine,0.1024
same,Log2(fold change) of dAMP,metabolite dAMP,-0.3497
same,Log2(fold change) of dATP,metabolite dATP,0.0366
same,Log2(fold change) of dCDP,metabolite dCDP,-0.2652
same,Log2(fold change) of dCMP,metabolite dCMP,-0.1471
same,Log2(fold change) of dCTP,metabolite dCTP,0.0304
same,Log2(fold change) of dGDP/ADP,metabolite dGDP/ADP,-0.1961
same,Log2(fold change) of dGMP/AMP,metabolite dGMP/AMP,-0.3182
same,Log2(fold change) of dGTP/ATP,metabolite dGTP/ATP,0.0666
same,Log2(fold change) of dTDP,metabolite dTDP,-0.3263
same,Log2(fold change) of dTMP,metabolite dTMP,-0.4999
same,Log2(fold change) of dTTP,metabolite dTTP,0.0866
same,Log2(fold change) of dUMP,metabolite dUMP,0.0000
same,Log2(fold change) of dUTP,metabolite dUTP,0.0000
same,Log2(fold change) of deoxyguanosine,metabolite deoxyguanosine,0.0000
same,Log2(fold change) of deoxyinosine,metabolite deoxyinosine,0.0000
same,Log2(fold change) of deoxyribose-phosphate,metabolite deoxyribose-phosphate,0.0000
same,Log2(fold change) of deoxyuridine,metabolite deoxyuridine,0.0000
same,Log2(fold change) of dihydroorotate,metabolite dihydroorotate,0.1627
same,Log2(fold change) of folate,metabolite folate,0.1440
same,Log2(fold change) of fructose-1-6-bisphosphate,metabolite fructose-1-6-bisphosphate,0.3162
same,Log2(fold change) of fructose-6-phosphate,metabolite fructose-6-phosphate,0.3514
same,Log2(fold change) of fumarate,metabolite fumarate,-0.0660
same,Log2(fold change) of glucono-lactone,metabolite glucono-lactone,0.0470
same,Log2(fold change) of glucose-1/6-phosphate,metabolite glucose-1/6-phosphate,0.0000
same,Log2(fold change) of glutamate,metabolite glutamate,0.0411
same,Log2(fold change) of glutamine,metabolite glutamine,0.1003
same,Log2(fold change) of glutathione,metabolite glutathione,0.0000
same,Log2(fold change) glutathione disulfide,metabolite glutathione disulfide,-0.3466
same,Log2(fold change) glycerate,metabolite glycerate,0.0000
same,Log2(fold change) guanine,metabolite guanine,0.0000
same,Log2(fold change) guanosine,metabolite guanosine,-0.2330
same,Log2(fold change) histidine,metabolite histidine,0.0507
same,Log2(fold change) homocysteic acid,metabolite homocysteic acid,0.0000
same,Log2(fold change) hydroxyphenylpyruvate,metabolite hydroxyphenylpyruvate,0.0000
same,Log2(fold change) hydroxyproline/Aminolevulinate,metabolite hydroxyproline/Aminolevulinate,0.0365
same,Log2(fold change) hypoxanthine,metabolite hypoxanthine,0.0000
same,Log2(fold change) indole,metabolite indole,0.0000
same,Log2(fold change) inosine,metabolite inosine,0.4396
same,Log2(fold change) isoleucine,metabolite isoleucine,0.0740
same,Log2(fold change) lactate,metabolite lactate,0.1682
same,Log2(fold change) leucine,metabolite leucine,0.0991
same,Log2(fold change) lysine,metabolite lysine,0.0854
same,Log2(fold change) malate,metabolite malate,-0.0032
same,Log2(fold change) maleic acid,metabolite maleic acid,0.0142
same,Log2(fold change) methionine,metabolite methionine,0.2846
same,Log2(fold change) myo-inositol,metabolite myo-inositol,0.0000
same,Log2(fold change) nicotinamide mononucleotide,metabolite nicotinamide mononucleotide,-0.0133
same,Log2(fold change) nicotinate,metabolite nicotinate,0.1646
same,Log2(fold change) ornithine,metabolite ornithine,0.0000
same,Log2(fold change) orotate,metabolite orotate,0.0201
same,Log2(fold change) orotidine-5'-phosphate,metabolite orotidine-5'-phosphate,0.1401
same,Log2(fold change) oxaloacetate,metabolite oxaloacetate,0.0000
same,Log2(fold change) p-aminobenzoate,metabolite p-aminobenzoate,0.0000
same,Log2(fold change) p-hydroxybenzoate,metabolite p-hydroxybenzoate,0.0000
same,Log2(fold change) pantothenate,metabolite pantothenate,0.1559
same,Log2(fold change) phenylalanine,metabolite phenylalanine,0.0217
same,Log2(fold change) phenylpyruvate,metabolite phenylpyruvate,0.0000
same,Log2(fold change) phosphoenolpyruvate,metabolite phosphoenolpyruvate,0.1068
same,Log2(fold change) prephenate,metabolite prephenate,0.0000
same,Log2(fold change) proline,metabolite proline,0.0000
same,Log2(fold change) pyridoxine,metabolite pyridoxine,0.3553
same,Log2(fold change) pyruvate,metabolite pyruvate,-0.3114
same,Log2(fold change) riboflavin,metabolite riboflavin,0.0000
same,Log2(fold change) ribose,metabolite ribose,0.0000
same,Log2(fold change) ribose-phosphate,metabolite ribose-phosphate,0.0000
same,Log2(fold change) ribulose-5-phosphate,metabolite ribulose-5-phosphate,0.1038
same,Log2(fold change) serine,metabolite serine,0.2426
same,Log2(fold change) sn-glycerol-3-phosphate,metabolite sn-glycerol-3-phosphate,0.0527
same,Log2(fold change) succinate/Methylmalonic acid,metabolite succinate/Methylmalonic acid,-0.0206
same,Log2(fold change) succinyl-CoA/methylmalonyl-CoA,metabolite succinyl-CoA/methylmalonyl-CoA,0.0000
same,Log2(fold change) taurine,metabolite taurine,0.3032
same,Log2(fold change) thiamine,metabolite thiamine,0.1205
same,Log2(fold change) threonine/homoserine,metabolite threonine/homoserine,0.0762
same,Log2(fold change) thymidine,metabolite thymidine,0.0000
same,Log2(fold changes) thymine,"metabolite thymine, log2 fold change",0.0000
same,Log2(fold changes) trehalose-6-Phosphate,"metabolite trehalose-6-Phosphate, log2 fold change",0.0000
same,Log2(fold changes) tryptophan,"metabolite tryptophan, log2 fold change",-0.1782
same,Log2(fold changes) tyrosine,"metabolite tyrosine, log2 fold change",0.0328
same,Log2(fold changes) uridine,"metabolite uridine, log2 fold change",0.0000
same,Log2(fold changes) valine,"metabolite valine, log2 fold change",0.0750
same,Log2(fold changes) xanthine,"metabolite xanthine, log2 fold change",0.0000
same,Log2(fold changes) xanthosine-5-phosphate,"metabolite xanthosine-5-phosphate, log2 fold change",0.2017
same,Log2(fold changes) xanthosine,"metabolite xanthosine, log2 fold change",-0.1521
same,Log2(fold changes) xylose,"metabolite xylose, log2 fold change",0.0000
